The text below walks through data of publication PMC6332508, “A Promising PET Tracer for Imaging of α7 Nicotinic Acetylcholine Receptors in the Brain: Design, Synthesis, and in Vivo Evaluation of a Dibenzothiophene-Based Radioligand” (Molecules, 2015).

One may read the Ki as the equilibrium dissociation constant of an inhibitor or competing ligand from its target. Usually inhibition stands for the drop in the measured response relative to a control, in per cent. As a reminder, the melting point is the temperature, or range, at which the solid turns liquid.

The target of data set [1] is α4β2 nAChR. Conditions: cited from earlier work.
The target in data set [2] is T1, human α3β4 nAChR (Homo sapiens, UniProt P30926+P32297).
T1 construct: expressed in transfected cells; host or cells: HEK293
In words: Radioligand displacement at human α3β4 nAChR, [3H]epibatidine, HEK293 cells. The format is binding. As to the method: (§1) The affinity of the test compounds for human α4β2 and α3β4 nAChR was determined as described above. In brief, HEK293 cells stably expressing human α4β2 or α3β4 nAChR [66] were cultured. […] Nonspecific binding was determined in the presence of 300 μM (−)-nicotine tartrate. Incubation of the samples, separation of free from receptor-bound radioligand, and data evaluation were performed as described above.
In general terms: Loss of bound radioactivity is the signal in a displacement assay; it reports binding, not function.

Data set [3] concerns the target T2, human α4β2 nAChR (Homo sapiens, UniProt P17787+P43681).
T2 construct: expressed in transfected cells; host or cells: HEK293
Put plainly: Radioligand displacement at human α4β2 nAChR, [3H]epibatidine, HEK293 cells. The format is binding. On the procedure: as §1

Data set [4] addresses rat α6β2* nAChR (Rattus norvegicus, UniProt P12390+P43143). Put plainly: [3H]epibatidine binding to antibody-immobilized native rat α6β2* nAChR from striatum. Conditions: read-out: Affinity (Ki in nM) rα6β2*, immunoimmobilization with anti-rα6 antibody, [3H]epibatidine 0.1 nM. As to the method: The specificity of the anti-α6 antibody was tested as described. The receptors were prepared and immobilized as previously described by the subunit-specific antibody. […] Incubations were performed in a buffer containing 50 mM Tris-HCl, pH 7, 150 mM NaCl, 5 mM KCl, 1 mM MgCl2, 2.5 mM CaCl2, 2 mg∙mL^−1 BSA, and 0.05% Tween 20. Specific ligand binding was defined as total binding minus the binding in the presence of 100 nM (±)-epibatidine dihydrochloride hydrate.
The experimental data obtained from the binding experiments were analyzed by means of a non-linear least square procedure using the LIGAND program. The Ki values of the test compounds were also determined by means of the LIGAND program by simultaneously fitting the data obtained from three to five independent saturation and competition binding experiments.

The target in data set [5] is T3, human 5-HT3 receptor (Homo sapiens, UniProt P46098).
T3 construct: host or cells: HEK-293
T3 sequence (P46098 24-478): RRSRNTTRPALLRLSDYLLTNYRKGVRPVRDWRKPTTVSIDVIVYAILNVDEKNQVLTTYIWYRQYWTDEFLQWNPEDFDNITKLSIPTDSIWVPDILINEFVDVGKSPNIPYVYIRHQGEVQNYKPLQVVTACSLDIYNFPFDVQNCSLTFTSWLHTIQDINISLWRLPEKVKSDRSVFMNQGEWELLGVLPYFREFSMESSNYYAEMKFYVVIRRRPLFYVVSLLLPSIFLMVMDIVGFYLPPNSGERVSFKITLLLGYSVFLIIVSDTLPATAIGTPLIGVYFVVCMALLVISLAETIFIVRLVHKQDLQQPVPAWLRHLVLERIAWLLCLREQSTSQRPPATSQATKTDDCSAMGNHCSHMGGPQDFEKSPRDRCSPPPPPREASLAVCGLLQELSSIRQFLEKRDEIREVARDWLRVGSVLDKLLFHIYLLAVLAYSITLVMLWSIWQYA
Put plainly: Radioligand binding at human 5-HT3 receptor, [3H]GR65630 (Eurofins Panlabs). Conditions: read-out: 5-HT3 percentage of inhibition.

The target of data set [6] is α3β4 nAChR. Details: method as in PMID 24050653. The conditions noted are these: rat receptor subtype; cited from earlier work.
For data set [7], the target named is α7 nAChR. The conditions noted are these: [125I]α-bungarotoxin labelled rat cortical membranes; cited from earlier work.
For data set [8], the target named is T4, human α7 nAChR (Homo sapiens, UniProt P36544).
T4 construct: expressed in transfected cells; host or cells: SH-SY5Y
In words: Radioligand displacement at human α7 nAChR, [3H]methyllycaconitine, SH-SY5Y cells. In kind it is binding. Conditions: for Selectivity (Ki ratio) α7/α3β4: Ki hα3β4 divided by Ki hα7; for Selectivity (Ki ratio) α7/α4β2: Ki hα4β2 divided by Ki hα7.

The target of data set [9] is T5, α7 nAChR (Macaca mulatta, UniProt Q866A2).
T5 construct: from tissue; host or cells: brain of a living rhesus monkey
In words: Comparative PET study in a rhesus monkey. The format is in vivo, rhesus monkey (Macaca mulatta). As to the method: One male rhesus monkey (Macaca mulatta, 6 years old, body weight = 10 kg) underwent two PET imaging sessions with [^18F]10a and [^18F]10b, respectively. The scans were conducted 19 days apart. The monkey was initially sedated by intramuscular ketamine at 10 mg∙kg^−1 at ~2 h before the PET scan and anesthetized by 1.5%–3% isoflurane throughout the imaging session. PET scan was performed using a FOCUS-220 PET scanner (Siemens Preclinical Solutions, Knoxville, TN, USA). After a transmission scan, 167 MBq of [^18F]10a (specific activity of 362 GBq∙μmol^−1) or 185 MBq of [^18F]10b (specific activity of 159 GBq·μmol^−1) were administered intravenously. Emission data were acquired in list mode for 240 min. Raw list-mode PET data was histogrammed (frames of 6 × 30 s; 3 × 1 min; 2 × 2 min; 46 × 5 min to scan termination) and reconstructed with 2D filtered back projection, using a 0.15 cm^−1 Shepp filter and including corrections for scanner normalization, detector dead time, randoms, and radiation scatter and attenuation. The PET images were then registered to MR images, acquired with a Siemens 3 T Trio scanner, with a 6-parameter rigid body registration. The MR native space was then normalized using nonlinear affine registration to a high-resolution rhesus monkey atlas using BioImage Suite 3.01 (http://www.bioimagesuite.org/index.html). Time-activity curves were extracted by mapping atlas-defined regions to PET native space using the optimal transformation matrices calculated in the registration and normalization steps. Regions extracted included amygdala, caudate, cerebellum, cingulate, cortical regions (frontal, occipital, and temporal cortex), hippocampus, putamen, thalamus, and pons.

Setting [10] is: Affinity (Ki in nM) hα3β4, stably transfected HEK-293 cells, [3H]epibatidine.
Where [11] appears, read: stably transfected HEK-293 cells, [3H]epibatidine, read-out: Affinity (Ki in nM) hα4β2.
[12] abbreviates: 0.1 μM concentration of test compound, [3H]GR65630 binding.
Setting [13] is: stably transfected SH-SY5Y cells, [3H]methyllycaconitine, read-out: Affinity (Ki in nM) hα7.
[14] abbreviates: stably transfected HEK-293 cells, [3H]epibatidine, read-out: Affinity (Ki in nM) hα3β4.

“And” between values parts separate entries of the source, which are not always exact repeats. Identical values can stand only once. Like-named read-outs stand apart in the source and are kept apart here.

T1 sequence (P32297 32-505): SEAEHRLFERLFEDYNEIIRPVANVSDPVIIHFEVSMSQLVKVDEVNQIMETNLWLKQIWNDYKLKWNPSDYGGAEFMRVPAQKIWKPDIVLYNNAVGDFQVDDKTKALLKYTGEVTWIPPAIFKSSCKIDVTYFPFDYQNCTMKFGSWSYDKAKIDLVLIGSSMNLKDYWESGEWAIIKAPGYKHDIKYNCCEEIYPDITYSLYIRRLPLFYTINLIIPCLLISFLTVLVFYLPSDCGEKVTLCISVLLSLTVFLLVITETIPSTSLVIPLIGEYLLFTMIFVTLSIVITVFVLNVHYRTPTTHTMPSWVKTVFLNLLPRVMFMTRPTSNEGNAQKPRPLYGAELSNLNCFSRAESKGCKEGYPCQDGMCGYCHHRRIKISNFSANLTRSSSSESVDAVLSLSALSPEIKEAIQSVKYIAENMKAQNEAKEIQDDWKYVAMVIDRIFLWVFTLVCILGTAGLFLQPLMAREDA
T1 sequence (P30926 22-498): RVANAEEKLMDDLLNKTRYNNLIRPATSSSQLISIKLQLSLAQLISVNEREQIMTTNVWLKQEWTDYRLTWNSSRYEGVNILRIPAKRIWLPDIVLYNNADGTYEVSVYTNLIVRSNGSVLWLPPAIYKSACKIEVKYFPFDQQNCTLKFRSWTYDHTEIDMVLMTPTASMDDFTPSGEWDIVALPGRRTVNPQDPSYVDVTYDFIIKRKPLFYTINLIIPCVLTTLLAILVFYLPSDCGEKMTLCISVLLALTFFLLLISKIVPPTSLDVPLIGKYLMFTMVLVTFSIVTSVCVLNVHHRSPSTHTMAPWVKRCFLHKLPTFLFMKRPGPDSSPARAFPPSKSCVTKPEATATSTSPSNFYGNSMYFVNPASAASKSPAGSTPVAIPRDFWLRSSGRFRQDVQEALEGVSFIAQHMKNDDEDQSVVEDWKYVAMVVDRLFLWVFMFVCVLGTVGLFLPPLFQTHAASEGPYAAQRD
T2 sequence (P43681 29-627 limits assumed): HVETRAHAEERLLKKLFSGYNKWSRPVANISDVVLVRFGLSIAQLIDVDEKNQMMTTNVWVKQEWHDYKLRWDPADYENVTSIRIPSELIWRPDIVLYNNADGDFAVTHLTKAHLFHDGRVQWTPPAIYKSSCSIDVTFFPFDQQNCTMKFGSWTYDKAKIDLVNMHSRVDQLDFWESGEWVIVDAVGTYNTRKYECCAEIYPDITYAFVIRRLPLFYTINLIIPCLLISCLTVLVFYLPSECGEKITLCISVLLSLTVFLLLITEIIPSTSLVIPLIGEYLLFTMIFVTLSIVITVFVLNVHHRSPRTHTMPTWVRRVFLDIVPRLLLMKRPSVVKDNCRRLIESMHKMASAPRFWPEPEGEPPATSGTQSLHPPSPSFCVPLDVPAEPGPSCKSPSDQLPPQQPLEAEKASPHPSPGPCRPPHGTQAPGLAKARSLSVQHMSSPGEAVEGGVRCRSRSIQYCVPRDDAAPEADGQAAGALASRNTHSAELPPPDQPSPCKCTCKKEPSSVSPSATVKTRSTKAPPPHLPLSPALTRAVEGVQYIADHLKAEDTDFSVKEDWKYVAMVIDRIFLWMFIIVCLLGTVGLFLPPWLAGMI
T2 sequence (P17787 26-502): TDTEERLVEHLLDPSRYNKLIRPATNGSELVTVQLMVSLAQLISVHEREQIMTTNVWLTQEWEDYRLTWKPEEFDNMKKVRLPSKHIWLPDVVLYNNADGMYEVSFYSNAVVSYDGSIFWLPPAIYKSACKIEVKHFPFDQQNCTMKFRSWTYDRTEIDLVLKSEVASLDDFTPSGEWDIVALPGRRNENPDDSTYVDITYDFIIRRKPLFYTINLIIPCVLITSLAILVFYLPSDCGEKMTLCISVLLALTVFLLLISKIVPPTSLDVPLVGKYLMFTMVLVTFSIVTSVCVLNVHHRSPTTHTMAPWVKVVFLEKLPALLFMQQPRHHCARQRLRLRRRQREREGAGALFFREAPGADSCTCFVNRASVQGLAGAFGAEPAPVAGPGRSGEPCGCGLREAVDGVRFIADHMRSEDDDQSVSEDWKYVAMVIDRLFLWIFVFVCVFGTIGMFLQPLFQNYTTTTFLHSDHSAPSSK
rat α6β2* nAChR, sequence (P43143 31-493): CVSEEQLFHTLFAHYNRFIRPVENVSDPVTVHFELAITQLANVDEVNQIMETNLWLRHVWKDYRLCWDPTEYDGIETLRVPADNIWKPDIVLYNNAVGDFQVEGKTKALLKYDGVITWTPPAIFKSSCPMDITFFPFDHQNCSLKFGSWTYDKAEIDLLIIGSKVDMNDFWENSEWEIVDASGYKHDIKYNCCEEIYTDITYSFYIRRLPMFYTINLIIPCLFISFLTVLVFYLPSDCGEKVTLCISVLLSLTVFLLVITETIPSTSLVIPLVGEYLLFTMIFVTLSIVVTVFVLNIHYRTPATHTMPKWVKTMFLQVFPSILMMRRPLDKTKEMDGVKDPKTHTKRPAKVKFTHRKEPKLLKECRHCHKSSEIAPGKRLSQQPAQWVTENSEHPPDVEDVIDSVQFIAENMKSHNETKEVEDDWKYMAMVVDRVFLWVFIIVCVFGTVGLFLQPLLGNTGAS
rat α6β2* nAChR, sequence (P12391 31-464, further chain): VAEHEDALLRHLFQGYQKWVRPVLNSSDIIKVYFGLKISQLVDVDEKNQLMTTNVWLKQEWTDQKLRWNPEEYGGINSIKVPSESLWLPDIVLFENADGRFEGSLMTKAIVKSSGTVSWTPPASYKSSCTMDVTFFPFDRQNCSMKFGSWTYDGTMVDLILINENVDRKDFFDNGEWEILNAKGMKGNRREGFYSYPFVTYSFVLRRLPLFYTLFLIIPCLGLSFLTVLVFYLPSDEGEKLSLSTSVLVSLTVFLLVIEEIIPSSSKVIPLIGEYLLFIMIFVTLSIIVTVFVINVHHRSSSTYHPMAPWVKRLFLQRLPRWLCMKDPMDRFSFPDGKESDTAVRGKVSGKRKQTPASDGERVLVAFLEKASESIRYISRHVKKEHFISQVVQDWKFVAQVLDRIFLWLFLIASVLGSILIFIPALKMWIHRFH
rat α6β2* nAChR, sequence (P12390 25-500): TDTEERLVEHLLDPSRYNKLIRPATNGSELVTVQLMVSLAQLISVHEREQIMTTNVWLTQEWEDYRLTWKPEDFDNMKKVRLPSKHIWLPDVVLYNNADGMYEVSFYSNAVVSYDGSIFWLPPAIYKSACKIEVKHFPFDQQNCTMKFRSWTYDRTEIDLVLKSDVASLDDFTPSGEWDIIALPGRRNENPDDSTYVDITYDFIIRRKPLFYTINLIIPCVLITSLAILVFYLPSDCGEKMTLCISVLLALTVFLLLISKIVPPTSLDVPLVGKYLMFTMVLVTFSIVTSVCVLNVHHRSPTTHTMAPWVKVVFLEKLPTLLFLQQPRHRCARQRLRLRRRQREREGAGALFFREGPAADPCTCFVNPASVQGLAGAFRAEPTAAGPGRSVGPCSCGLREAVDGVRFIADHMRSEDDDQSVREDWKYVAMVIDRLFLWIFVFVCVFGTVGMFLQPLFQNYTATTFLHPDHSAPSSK
T4 sequence (P36544 23-502): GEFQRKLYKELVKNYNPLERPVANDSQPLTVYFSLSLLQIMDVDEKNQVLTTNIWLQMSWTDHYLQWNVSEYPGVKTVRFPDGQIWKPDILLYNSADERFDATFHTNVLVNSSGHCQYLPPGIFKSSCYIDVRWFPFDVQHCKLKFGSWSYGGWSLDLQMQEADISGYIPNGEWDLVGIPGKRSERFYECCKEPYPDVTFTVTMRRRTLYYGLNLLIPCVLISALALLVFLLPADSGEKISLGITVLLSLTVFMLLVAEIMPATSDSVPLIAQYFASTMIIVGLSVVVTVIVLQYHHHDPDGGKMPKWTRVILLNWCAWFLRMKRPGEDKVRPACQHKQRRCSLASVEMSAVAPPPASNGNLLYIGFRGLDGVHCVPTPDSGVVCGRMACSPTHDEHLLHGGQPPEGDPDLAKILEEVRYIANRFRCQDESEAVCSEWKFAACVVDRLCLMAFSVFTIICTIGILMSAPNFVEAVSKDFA
T5 sequence (Q866A2 23-502): as the sequence (P36544 23-502) above, with N171S, R186K, V373M, V376A counted along it

In the case of `O=S1(=O)c2cc(N3CCN4CCC3CC4)ccc2-c2cccc(F)c21` [[^18F]10b, reference compound], the Ki in data set [1] was 562 nM.

For `Fc1ccc(-c2nnc(N3CCN4CCC3CC4)o2)cc1` [[^18F]NS10743], the Ki in [1] is greater than 10000 nM.

`O=S1(=O)c2cc(N3CCN4CCC3CC4)ccc2-c2cccc(F)c21` [Compound 10b, 3-(1,4-Diazabicyclo[3.2.2]nonan-4-yl)-6-fluorodibenzo[b,d]thiophene 5,5-dioxide]: the Ki in data set [2] (setting [10]) was 43 nM and 42.3 nM; in [3] (setting [11]) it was 211 ± 108 nM; in data set [4], 435 ± 152 nM; in data set [6], 709 nM; in [7], 0.4 nM. In addition, the inhibition at 0.1 µM in data set [5] (setting [12]) worked out at 42%.

For `O=S1(=O)c2ccccc2-c2cc(F)c(N3CCN4CCC3CC4)cc21` [Compound 10c, 3-(1,4-Diazabicyclo[3.2.2]nonan-4-yl)-2-fluorodibenzo[b,d]thiophene 5,5-dioxide], the melting point was 305 to 309 °C (dec.). The compound further had a Ki in [2] of 279 ± 24.4 nM. The compound further registered a Ki in [3] of 507 ± 212 nM. In [4], the Ki came out at 1390 ± 340 nM. Moreover, the inhibition at 0.1 µM in data set [5] (setting [12]) amounted to 26%. In data set [8], the “Selectivity (Ki ratio) α7/α3β4” value was found to be 33 and the “Selectivity (Ki ratio) α7/α4β2” value was 59. In addition, the “fold lower affinity at the α7 subtype” value in [8] (relative to 10a and 10b) is reported as “about 10 fold”. In data set [8] (setting [13]), the Ki turned out to be 8.53 ± 1.74 nM.

Take `CN1CC2CCC(C1)N2c1ccc2c(c1)S(=O)(=O)c1c(F)cccc1-2` [Compound 14b]: the melting point was 254.5 to 256 °C (dec.). For the same compound, the Ki in [2] (setting [14]) is greater than 5000 nM. For the same compound, in data set [3] (setting [11]), the Ki was greater than 4000 nM. Moreover, the Ki in data set [4] is 1450 ± 370 nM. Besides, in [5] (setting [12]), the inhibition at 0.1 µM was found to be 4%. Also, in data set [8], the “Selectivity (Ki ratio) α7/α3β4” value is greater than 500 and the “Selectivity (Ki ratio) α7/α4β2” value was greater than 400. In [8] (setting [13]), the Ki amounted to 9.26 ± 2.23 nM.

Turning to `CN1C2CCC1CN(c1ccc3c(c1)S(=O)(=O)c1c(F)cccc1-3)C2` [Compound 13b], the melting point is 260.5 to 262.5 °C (dec.). For the same compound, the Ki in data set [2] (setting [14]) is 224 ± 51.7 nM. The Ki in [3] (setting [11]) is 426 ± 197 nM. For the same compound, the Ki in [4] was 2260 ± 540 nM. Besides, the inhibition at 0.1 µM in [5] (setting [12]) turned out to be 10%. For the same compound, in [8], the “Selectivity (Ki ratio) α7/α3β4” value is 5 and the “Selectivity (Ki ratio) α7/α4β2” value was 10. Also, the Ki in data set [8] (setting [13]) came out at 40.9 ± 7.77 nM.

Turning to `CN1C2CCCC1CN(c1ccc3c(c1)S(=O)(=O)c1ccc(F)cc1-3)C2` [Compound 12a], the melting point is 214 to 217 °C (dec.). For the same compound, the Ki in data set [2] (setting [10]) worked out at 96 ± 1.48 nM. Besides, the Ki in data set [3] (setting [11]) stood at 141 ± 11.7 nM. Further, in data set [4], the Ki is 1180 ± 360 nM. The inhibition at 0.1 µM in data set [5] (setting [12]) was 10%. Moreover, in data set [8], the “Selectivity (Ki ratio) α7/α3β4” value came out at 3 and the “Selectivity (Ki ratio) α7/α4β2” value is reported as 5. In [8] (setting [13]), the Ki amounted to 30.9 ± 8.72 nM.

`O=S1(=O)c2ccccc2-c2ccc(N3CCN4CCC3CC4)cc21` [Compound 10]: the melting point was 238.5 to 240 °C (dec.). For the same compound, in data set [2] (setting [10]), the Ki came to 49.6 ± 14.7 nM. In addition, the Ki in data set [3] was determined as 318 ± 43.3 nM. Also, the Ki in data set [4] came to 517 ± 186 nM. The inhibition at 0.1 µM in data set [5] came to 35%. In data set [8], the Ki was 0.51 ± 0.32 nM, the “Selectivity (Ki ratio) α7/α3β4” value is recorded as 97 and the “Selectivity (Ki ratio) α7/α4β2” value is recorded as 623.

With `O=[N+]([O-])c1ccc2c(c1)-c1ccc(N3CCN4CCC3CC4)cc1S2(=O)=O`, the melting point is 291 to 294 °C (dec.).

In the case of `O=S1(=O)c2cc(N3CCN4CCC3CC4)ccc2-c2cccc([18F])c21` [[^18F]10b, reference compound], the “total volume of distribution VT” value in data set [9] (cerebellum) amounted to 26.8 mL∙cm^−3; in data set [9] (thalamus), 46.7 mL∙cm^−3.

On to `CN1C2CCCC1CN(c1ccc3c(c1)S(=O)(=O)c1c(F)cccc1-3)C2` [Compound 12b, 6-Fluoro-3-(9-methyl-3,9-diazabicyclo[3.3.1]nonan-3-yl)dibenzo[b,d]thiophene 5,5-dioxide], for which the melting point is 264 to 272 °C (dec.). Moreover, the Ki in [2] (setting [10]) stood at 94.8 ± 6.48 nM. Also, in [3] (setting [11]), the Ki was 301 ± 148 nM. Besides, the Ki in data set [4] stood at 1190 ± 230 nM. Also, in data set [5] (setting [12]), the inhibition at 0.1 µM worked out at 11%. Further, in data set [8], the “Selectivity (Ki ratio) α7/α3β4” value was found to be 1 and the “Selectivity (Ki ratio) α7/α4β2” value is recorded as 3. Moreover, in data set [8] (setting [13]), the Ki stood at 105 ± 23.9 nM.
